From patent publication US20260055083A1, “APOL1 INHIBITORS AND METHODS OF USE” (Maze Therapeutics, Inc., priority 2022, published 2026)

What was measured:
APOL1 G2 [1] = target: T1, APOL1 G2 (Homo sapiens, UniProt O14791, DEL388-389); assay: APOL1 G2 FLIPR calcium influx assay (HEK T-REx/GCaMP6f/APOL1 G2 K6.3 cells); type: cell-based; conditions: HEK293 clone expressing GCaMP6f, doxycycline-induced APOL1 G2; prevention of calcium influx; geometric mean of at least 2 assay runs
T1 construct: expressed in transfected cells; host or cells: HEK293/T-REx APOL1 G2 clone #2, doxycycline-inducible
T1 sequence (O14791 with tags, fused parts or gaps DEL388-389): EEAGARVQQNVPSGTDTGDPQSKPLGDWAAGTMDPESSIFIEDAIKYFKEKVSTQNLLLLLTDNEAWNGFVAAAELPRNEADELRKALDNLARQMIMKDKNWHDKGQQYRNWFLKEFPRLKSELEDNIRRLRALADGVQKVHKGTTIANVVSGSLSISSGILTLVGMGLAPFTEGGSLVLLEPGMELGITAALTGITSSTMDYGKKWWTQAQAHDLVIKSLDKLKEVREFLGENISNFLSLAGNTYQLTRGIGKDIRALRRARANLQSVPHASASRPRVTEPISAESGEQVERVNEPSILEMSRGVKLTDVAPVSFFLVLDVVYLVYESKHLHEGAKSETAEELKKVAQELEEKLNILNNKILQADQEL
Method in brief: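 Cells express GCaMP6f stably and APOL1 G2 after a 6 h doxycycline induction. Duplicate 8-point dilutions sit 10 min at room temperature in Ca2+-free Tyrode's (pH 7.4), then Ca2+ is injected to 5 mM final and the FLIPR signal recorded. AC50s are geometric means across ≥2 days.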

APOL1 G2 [2] = target: T1, APOL1 G2; assay: APOL1 G2 HEK293 rescue of cell death caused by overexpression of APOL1 (CellTiter-Glo); type: cell-based; conditions: HEK293/T-REx APOL1 G2 clone #2, doxycycline induction, 17 hours, CellTiter-Glo luminescence; reversal of cell death; geometric mean of at least 2 assay runs
Method in brief: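 Viability read by CellTiter-Glo luminescence after 17 h, 37 °C, in HEK293/T-REx cells expressing APOL1 G2 on 6 ng/mL doxycycline, 5,000 cells/well. Compounds tested as duplicate 8-point, 3-fold dilutions, 0.5% DMSO final; four-parameter logistic EC50, usually geometric mean of ≥2 days.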

Question: How did the AC50 (APOL1 G2 [1]) turn out when `COC(=O)CCCS(=O)(=O)c1ccc(OC[C@@H]2CN(CCc3cc(Cl)cc(C#N)c3)C[C@H]2C)cc1` [Compound 80, methyl 4-(4-{[(3S,4S)-1-[2-(3-chloro-5-cyanophenyl)ethyl]-4-methylpyrrolidin-3-yl]methoxy}benzenesulfonyl)butanoate] was run?
Answer: Its AC50 is 404 nM.

Question: What about the EC50 (APOL1 G2 [2]) of the same molecule?
Answer: The EC50 was 202 nM.

Question: For `C[C@@H]1CN(CCc2cc(Cl)cc(C#N)c2)C[C@H]1COc1cc(F)c(S(C)(=O)=O)c(F)c1` [Compound 82, 3-chloro-5-{2-[(3S,4S)-3-[(3,5-difluoro-4-methanesulfonylphenoxy)methyl]-4-methylpyrrolidin-1-yl]ethyl}benzonitrile], which AC50 (APOL1 G2 [1]) is on record?
Answer: Its AC50 is 370 nM.

Question: And the EC50 (APOL1 G2 [2])?
Answer: Its EC50 is 165 nM.

Question: What does the source list for `Cc1cc(OC[C@@H]2CN(CCc3cccc(C#N)c3)C[C@H]2C)ccc1S(C)(=O)=O` [Compound 83, 3-{2-[(3S,4S)-3-[(4-methanesulfonyl-3-methylphenoxy)methyl]-4-methylpyrrolidin-1-yl]ethyl}benzonitrile]?
Answer: AC50 (APOL1 G2 [1]): 94.6 nM; EC50 (APOL1 G2 [2]): 94.3 nM

Question: Which AC50 (APOL1 G2 [1]) does the source give for `Cc1cc(OC[C@@H]2CN(CCc3cc(Cl)cc(C#N)c3)C[C@H]2C)ccc1S(C)(=O)=O` [Compound 84, 3-chloro-5-{2-[(3S,4S)-3-[(4-methanesulfonyl-3-methylphenoxy)methyl]-4-methylpyrrolidin-1-yl]ethyl}benzonitrile] here?
Answer: The AC50 was 182 nM.

Question: What about the EC50 (APOL1 G2 [2]) of the same molecule?
Answer: Its EC50 is 28.6 nM.

Question: Which results are given for `C[C@@H]1CN(CCc2cc(Cl)cc(C#N)c2)C[C@H]1COc1ccc(S(C)(=O)=O)nc1` [Compound 85, 3-chloro-5-{2-[(3S,4S)-3-{[(6-methanesulfonylpyridin-3-yl)oxy]methyl}-4-methylpyrrolidin-1-yl]ethyl}benzonitrile]?
Answer: AC50 (APOL1 G2 [1]): 221 nM; EC50 (APOL1 G2 [2]): 186 nM

Question: How did the AC50 (APOL1 G2 [1]) turn out when `C[C@@H]1CN(CCc2cccc(C#N)c2)C[C@H]1COc1ccc(S(C)(=O)=O)c(C#N)c1` [Compound 86, 5-{[(3S,4S)-1-[2-(3-cyanophenyl)ethyl]-4-methylpyrrolidin-3-yl]methoxy}-2-methanesulfonylbenzonitrile] was run?
Answer: The AC50 was 117 nM.

Question: What about the EC50 (APOL1 G2 [2]) of the same molecule?
Answer: Its EC50 is 20.4 nM.

Question: `C[C@@H]1C[C@H](COc2ccc(S(C)(=O)=O)cc2)CN1C1CCc2c(Cl)cccc2C1` (stereo partly drawn) [Compound 88, (2R,4S)-1-(5-chloro-1,2,3,4-tetrahydronaphthalen-2-yl)-4-[(4-methanesulfonylphenoxy)methyl]-2-methylpyrrolidine] was tested. Which AC50 (APOL1 G2 [1]) did it give?
Answer: Its AC50 is 843 nM.

Question: And the EC50 (APOL1 G2 [2])?
Answer: The EC50 was 215 nM.

Question: Which results are given for `C[C@@H]1CN(CC(O)c2cccc(C#N)c2)C[C@H]1COc1ccc(S(C)(=O)=O)nc1` (stereo partly drawn) [Compound 104, 3-{1-hydroxy-2-[(3S,4S)-3-{[(6-methanesulfonylpyridin-3-yl)oxy]methyl}-4-methylpyrrolidin-1-yl]ethyl}benzonitrile]?
Answer: AC50 (APOL1 G2 [1]): 700 nM; EC50 (APOL1 G2 [2]): 1010 nM

Question: Which AC50 (APOL1 G2 [1]) does the source give for `CS(=O)(=O)C1(c2ccc(OC[C@@H]3CN(CCc4cccc(Cl)c4)CCN3)cc2)COC1` [Compound 107, (3S)-1-[2-(3-chlorophenyl)ethyl]-3-{[4-(3-methanesulfonyloxetan-3-yl)phenoxy]methyl}piperazine] here?
Answer: Its AC50 is < 86.6 nM.

Question: What about the EC50 (APOL1 G2 [2]) of the same molecule?
Answer: The EC50 was 245 nM.

Question: `CN1CC(S(=O)(=O)c2ccc(OC[C@@H]3CN(CCc4cccc(Cl)c4)CCN3)cc2)C1` [Compound 108, (3S)-1-[2-(3-chlorophenyl)ethyl]-3-({4-[(1-methylazetidin-3-yl)sulfonyl]phenoxy}methyl)piperazine] was tested. Which AC50 (APOL1 G2 [1]) did it give?
Answer: The AC50 was 337 nM.

Question: What about the EC50 (APOL1 G2 [2]) of the same molecule?
Answer: Its EC50 is 664 nM.

Question: What does the source list for `CC(=O)N1CC(S(=O)(=O)c2ccc(OC[C@@H]3CN(CCc4cccc(Cl)c4)CCN3)cc2)C1` [Compound 109, 1-[3-(4-{[(2S)-4-[2-(3-chlorophenyl)ethyl]piperazin-2-yl]methoxy}benzenesulfonyl)azetidin-1-yl]ethan-1-one]?
Answer: AC50 (APOL1 G2 [1]): 746 nM; EC50 (APOL1 G2 [2]): 224 nM

Question: How did the AC50 (APOL1 G2 [1]) turn out when `CS(=O)(=O)C1(c2ccc(OC[C@@H]3CN(CCc4cc(Cl)cc(C#N)c4)CCN3)cc2)CC1` [Compound 110, 3-chloro-5-{2-[(3S)-3-{[4-(1-methanesulfonylcyclopropyl)phenoxy]methyl}piperazin-1-yl]ethyl}benzonitrile] was run?
Answer: Its AC50 is 140 nM.

Question: What about the EC50 (APOL1 G2 [2]) of the same molecule?
Answer: The EC50 was 93.2 nM.

Question: What does the source list for `CS(=O)(=O)C1(c2ccc(OC[C@@H]3CN(CCc4cc(Cl)cc(C#N)c4)CCN3)cc2)COC1` [Compound 111, 3-chloro-5-{2-[(3S)-3-{[4-(3-methanesulfonyloxetan-3-yl)phenoxy]methyl}piperazin-1-yl]ethyl}benzonitrile]?
Answer: AC50 (APOL1 G2 [1]): < 116 nM; EC50 (APOL1 G2 [2]): 137 nM

Question: For `Cc1cc(OC[C@@H]2CN(CCc3cc(Cl)cc(C#N)c3)CCN2)ccc1S(C)(=O)=O` [Compound 112, 3-chloro-5-{2-[(3S)-3-[(4-methanesulfonyl-3-methylphenoxy)methyl]piperazin-1-yl]ethyl}benzonitrile], which AC50 (APOL1 G2 [1]) is on record?
Answer: The AC50 was 409 nM.

Question: What about the EC50 (APOL1 G2 [2]) of the same molecule?
Answer: The EC50 was 296 nM.

Question: Which results are given for `CS(=O)(=O)c1ccc(OC[C@@H]2CN(CCc3cccc(C#N)c3)CCN2)cc1C(F)(F)F` [Compound 113, 3-{2-[(3S)-3-{[4-methanesulfonyl-3-(trifluoromethyl)phenoxy]methyl}piperazin-1-yl]ethyl}benzonitrile]?
Answer: AC50 (APOL1 G2 [1]): 634 nM; EC50 (APOL1 G2 [2]): 726 nM

Question: How did the AC50 (APOL1 G2 [1]) turn out when `CS(=O)(=O)c1ccc(OC[C@@H]2CN(CCc3cc(Cl)cc(C#N)c3)CCN2)cc1C(F)(F)F` [Compound 114, 3-chloro-5-{2-[(3S)-3-{[4-methanesulfonyl-3-(trifluoromethyl)phenoxy]methyl}piperazin-1-yl]ethyl}benzonitrile] was run?
Answer: The AC50 was 868 nM.

Question: What about the EC50 (APOL1 G2 [2]) of the same molecule?
Answer: Its EC50 is 295 nM.

Question: With `C[C@@H]1CN(C(CO)Cc2cccc(Cl)c2)C[C@H]1COc1ccc(S(C)(=O)=O)cc1` (stereo partly drawn) [Compound 115, 3-(3-chlorophenyl)-2-[(3S,4S)-3-[(4-methanesulfonylphenoxy)methyl]-4-methylpyrrolidin-1-yl]propan-1-ol] as the molecule, how does the AC50 (APOL1 G2 [1]) read?
Answer: The AC50 was 470 nM.

Question: What about the EC50 (APOL1 G2 [2]) of the same molecule?
Answer: Its EC50 is 1830 nM.

Question: With `C[C@@H]1CN(C(CO)Cc2cc(Cl)cc(C#N)c2)C[C@H]1COc1ccc(S(C)(=O)=O)cc1` (stereo partly drawn) [Compound 120, 3-chloro-5-[3-hydroxy-2-[(3S,4S)-3-[(4-methanesulfonylphenoxy)methyl]-4-methylpyrrolidin-1-yl]propyl]benzonitrile] as the molecule, how does the AC50 (APOL1 G2 [1]) read?
Answer: Its AC50 is 480 nM.

Question: What about the EC50 (APOL1 G2 [2]) of the same molecule?
Answer: The EC50 was 1040 nM.

Question: For `C[C@@H]1CN(CC(CO)c2cc(Cl)cc(C#N)c2)C[C@H]1COc1ccc(S(C)(=O)=O)cc1` (stereo partly drawn) [Compound 126, 3-chloro-5-(1-hydroxy-3-((3S,4S)-3-methyl-4-((4-(methylsulfonyl)phenoxy)methyl)pyrrolidin-1-yl)propan-2-yl)benzonitrile], which AC50 (APOL1 G2 [1]) is on record?
Answer: Its AC50 is 1740 nM.

Question: What about the EC50 (APOL1 G2 [2]) of the same molecule?
Answer: The EC50 was 2760 nM.

Question: For `CS(=O)(=O)c1ccc(OC[C@@H]2CCCN(C3CCc4ccc(Cl)cc4C3)C2)cc1` (stereo partly drawn) [Compound 131, (3R)-1-(7-chloro-1,2,3,4-tetrahydronaphthalen-2-yl)-3-[(4-methanesulfonylphenoxy)methyl]piperidine], which AC50 (APOL1 G2 [1]) is on record?
Answer: The AC50 was < 229 nM.

Question: What about the EC50 (APOL1 G2 [2]) of the same molecule?
Answer: Its EC50 is 994 nM.

Question: How did the AC50 (APOL1 G2 [1]) turn out when `CC(c1ccc(OC[C@@H]2CN(CCc3cccc(Cl)c3)CCN2)cc1)S(C)(=O)=O` (stereo partly drawn) [Compound 140, (3S)-1-[2-(3-chlorophenyl)ethyl]-3-{[4-(1-methanesulfonylethyl)phenoxy]methyl}piperazine] was run?
Answer: The AC50 was 379 nM.

Question: What about the EC50 (APOL1 G2 [2]) of the same molecule?
Answer: The EC50 was 756 nM.

Question: `C[C@H]1C[C@H](COc2ccc(S(C)(=O)=O)cc2)CN1CCc1cccc(Cl)c1` [Compound 143, (2S,4S)-1-[2-(3-chlorophenyl)ethyl]-4-[(4-methanesulfonylphenoxy)methyl]-2-methylpyrrolidine] was tested. Which AC50 (APOL1 G2 [1]) did it give?
Answer: The AC50 was 936 nM.

Question: And the EC50 (APOL1 G2 [2])?
Answer: Its EC50 is 1200 nM.

Question: `C[C@@H]1C[C@@H](COc2ccc(S(C)(=O)=O)cc2)CN1CCc1cccc(Cl)c1` [Compound 145, (2R,4R)-1-[2-(3-chlorophenyl)ethyl]-4-[(4-methanesulfonylphenoxy)methyl]-2-methylpyrrolidine] was tested. Which AC50 (APOL1 G2 [1]) did it give?
Answer: The AC50 was 1130 nM.

Question: What about the EC50 (APOL1 G2 [2]) of the same molecule?
Answer: The EC50 was 1770 nM.
